Laboratory results from PubChem BioAssay AID1963984 (Molecular Pharmacology Branch, DTP, NCI, 2024).

System: 233499-124-R-J3-PDC spheroids with HUVEC/MSC, viability
Experiment: Anticancer human tumor 233499-124-R-J3-PDC patient-derived colon adenocarcinoma cell line growth inhibition [PI3K]
Settings: for IC50: curve of first compound; for viability, T/C: stronger effect = lower value; active means viability on the fitted dose curve at most 10% of control; inactive means the rest
How it was run: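 Combination activity was assessed by viability in multicellular tumor spheroids carrying HUVEC and MSC components. Agents were tested with PI3K inhibitors from a Cmax-based top dose (or 10 microM) downward in half-log increments.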

[1] = second compound 0.00316 µM, first compound 0.0316 µM
[2] = second compound 0.00316 µM, first compound 0.1 µM
[3] = second compound 0.00316 µM, first compound 0.316 µM
[4] = second compound 0.00316 µM, first compound 1 µM
[5] = second compound 0.00316 µM, first compound 3.16 µM
[6] = second compound 0.00316 µM, first compound 10 µM
[7] = second compound 0.01 µM, first compound 0.0316 µM
[8] = second compound 0.01 µM, first compound 0.1 µM
[9] = second compound 0.01 µM, first compound 0.316 µM
[10] = second compound 0.01 µM, first compound 1 µM
[11] = second compound 0.01 µM, first compound 3.16 µM
[12] = second compound 0.01 µM, first compound 10 µM
[13] = second compound 0.0316 µM, first compound 0.0316 µM
[14] = second compound 0.0316 µM, first compound 0.1 µM
[15] = second compound 0.0316 µM, first compound 0.316 µM
[16] = second compound 0.0316 µM, first compound 1 µM
[17] = second compound 0.0316 µM, first compound 3.16 µM
[18] = second compound 0.0316 µM, first compound 10 µM
[19] = second compound 0.1 µM, first compound 0.0316 µM
[20] = second compound 0.1 µM, first compound 0.1 µM
[21] = second compound 0.1 µM, first compound 0.316 µM
[22] = second compound 0.1 µM, first compound 1 µM
[23] = second compound 0.1 µM, first compound 3.16 µM
[24] = second compound 0.1 µM, first compound 10 µM
[25] = second compound 0.316 µM, first compound 0.0316 µM
[26] = second compound 0.316 µM, first compound 0.1 µM
[27] = second compound 0.316 µM, first compound 0.316 µM
[28] = second compound 0.316 µM, first compound 1 µM
[29] = second compound 0.316 µM, first compound 3.16 µM
[30] = second compound 0.316 µM, first compound 10 µM
[31] = second compound 1 µM, first compound 0.0316 µM
[32] = second compound 1 µM, first compound 0.1 µM
[33] = second compound 1 µM, first compound 0.316 µM
[34] = second compound 1 µM, first compound 1 µM
[35] = second compound 1 µM, first compound 3.16 µM
[36] = second compound 1 µM, first compound 10 µM
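Further: spheroids exposed to agents for seven days before readout.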
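Wherever viability, T/C is given: percent viability relative to DMSO vehicle control taken as 100%.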

C=CC(=O)N1CCN(c2nc(=O)n(-c3c(C)ccnc3C(C)C)c3nc(-c4c(O)cccc4F)c(F)cc23)C(C)C1 (stereo unspecified) + CC(Nc1ccc2c(c1)OCCn1cc(N3C(=O)OCC3C(F)F)nc1-2)C(N)=O
> 10 µM: IC50 (second compound 0.00316 µM) | IC50 (second compound 0.01 µM) | IC50 (second compound 0.0316 µM) | IC50 (second compound 0.1 µM) | IC50 (second compound 0.316 µM) | IC50 (second compound 1 µM)
inactive: viability, T/C [1] 101% | viability, T/C [2] 87.5% | viability, T/C [3] 87.9% | viability, T/C [4] 113% | viability, T/C [5] 100% | viability, T/C [6] 100% | viability, T/C [7] 85.9% | viability, T/C [8] 88.8% | viability, T/C [9] 77.5% | viability, T/C [10] 95.6% | viability, T/C [11] 97.5% | viability, T/C [12] 86.2% | viability, T/C [13] 85.8% | viability, T/C [14] 106% | viability, T/C [15] 91.4% | viability, T/C [16] 92.8% | viability, T/C [17] 93.5% | viability, T/C [18] 84.6% | viability, T/C [19] 103% | viability, T/C [20] 94.5% | viability, T/C [21] 91.3% | viability, T/C [22] 83% | viability, T/C [23] 87% | viability, T/C [24] 57.1% | viability, T/C [25] 92.7% | viability, T/C [26] 80.5% | viability, T/C [27] 80.8% | viability, T/C [28] 77.4% | viability, T/C [29] 71% | viability, T/C [30] 85.5% | viability, T/C [31] 61% | viability, T/C [32] 67.7% | viability, T/C [33] 44.3% | viability, T/C [34] 56.3% | viability, T/C [35] 63.6% | viability, T/C [36] 66.9%

CC(Cn1ccc(-c2ccc(C#N)c(Cl)c2)n1)NC(=O)c1cc(C(C)O)[nH]n1 (stereo unspecified) + CC(Nc1ccc2c(c1)OCCn1cc(N3C(=O)OCC3C(F)F)nc1-2)C(N)=O
7.39 µM: IC50 (second compound 0.316 µM)
> 10 µM: IC50 (second compound 0.00316 µM) | IC50 (second compound 0.01 µM) | IC50 (second compound 0.0316 µM) | IC50 (second compound 0.1 µM) | IC50 (second compound 1 µM)
inactive: viability, T/C [1] 97.5% | viability, T/C [2] 84.3% | viability, T/C [3] 86.6% | viability, T/C [4] 83.1% | viability, T/C [5] 90.8% | viability, T/C [6] 97.7% | viability, T/C [7] 99.5% | viability, T/C [8] 77.7% | viability, T/C [9] 96.2% | viability, T/C [10] 83.4% | viability, T/C [11] 82.5% | viability, T/C [12] 76.8% | viability, T/C [13] 92.1% | viability, T/C [14] 82.4% | viability, T/C [15] 67.9% | viability, T/C [16] 93.9% | viability, T/C [17] 101% | viability, T/C [18] 83% | viability, T/C [19] 83.1% | viability, T/C [20] 89.3% | viability, T/C [21] 90% | viability, T/C [22] 80.3% | viability, T/C [23] 74.4% | viability, T/C [24] 71% | viability, T/C [25] 76% | viability, T/C [26] 63.7% | viability, T/C [27] 70.5% | viability, T/C [28] 73.6% | viability, T/C [29] 90.6% | viability, T/C [30] 41.2% | viability, T/C [31] 62% | viability, T/C [32] 62% | viability, T/C [33] 47.4% | viability, T/C [34] 62.6% | viability, T/C [35] 66% | viability, T/C [36] 54.6%

Cn1nccc1Nc1nccc(-c2ccn(C(CO)c3ccc(Cl)c(F)c3)c(=O)c2)n1 (stereo unspecified) + CC(Nc1ccc2c(c1)OCCn1cc(N3C(=O)OCC3C(F)F)nc1-2)C(N)=O
> 10 µM: IC50 (second compound 0.00316 µM) | IC50 (second compound 0.0316 µM) | IC50 (second compound 0.1 µM)
9.87 µM: IC50 (second compound 0.01 µM)
inactive: viability, T/C [1] 81.3% | viability, T/C [2] 95.2% | viability, T/C [3] 80.5% | viability, T/C [4] 104% | viability, T/C [5] 52.7% | viability, T/C [6] 58.2% | viability, T/C [7] 83% | viability, T/C [8] 81.6% | viability, T/C [9] 74.3% | viability, T/C [10] 74.9% | viability, T/C [11] 59.5% | viability, T/C [12] 50.2% | viability, T/C [13] 95.6% | viability, T/C [14] 100% | viability, T/C [15] 71.8% | viability, T/C [16] 55.7% | viability, T/C [17] 79.3% | viability, T/C [18] 66% | viability, T/C [19] 76.3% | viability, T/C [20] 77.3% | viability, T/C [21] 82.3% | viability, T/C [22] 63.2% | viability, T/C [23] 53.1% | viability, T/C [24] 48.1% | viability, T/C [25] 78.3% | viability, T/C [26] 73% | viability, T/C [27] 58.6% | viability, T/C [28] 45.9% | viability, T/C [29] 39.6% | viability, T/C [30] 36.3% | viability, T/C [31] 55.8% | viability, T/C [32] 58.6% | viability, T/C [33] 43.5% | viability, T/C [34] 41.6% | viability, T/C [35] 38.9% | viability, T/C [36] 27.8%
0.211 µM: IC50 (second compound 1 µM)
0.694 µM: IC50 (second compound 0.316 µM)
